Laboratory results: US20220071932A1, “Compositions and Methods Against Stress-Induced Affective Disorders and Their Associated Symptoms” (The Trustees of Columbia University in the City of New York, priority 2019, published 2022)

Experiments:
129S6/SvEv mice [1] = test: Novelty suppressed feeding (NSF); assay type: in vivo
Description: Testing was performed as previously described (47). Briefly, the NSF testing apparatus consisted of a plastic box (50×50×20 cm). The floor of which was covered with approximately 2 cm of wooden bedding and the arena was brightly lit (approximately 1000 lux). Mice were food restricted for 24 h prior to testing. At the time of testing, a single pellet of food (regular chow) was placed on a white paper platform positioned in the center of the box. Each animal was placed in a corner of the box, and a stopwatch was immediately started. The latency of the mice to begin eating in the arena was recorded Immediately after the latency was recorded, the food pellet was removed from the arena. The mice were then placed back into their home cage. The latency to eat and the amount of food consumed in 5 min were measured (home cage consumption), followed by an assessment of post-restriction weight. A Kaplan-Meier survival analysis was used due to the lack of normal distribution of data. The Mantel-Cox log-rank test was used to evaluate differences between the experimental groups.

NMDARs = settings: ex vivo autoradiography and immunohistochemical staining; cited from earlier work
[2] = system: depressive symptoms in patients; settings: subanesthetic dose; patients; cited from earlier work
129S6/SvEv mice [3] = test: Marble burying (MB); assay type: in vivo; settings: 30 mg/kg; drug 5 minutes after stress; FIG. 2K
Description: The MB assay was conducted in a clean cage (10.5 in×5.5 in) containing soft pliable Beta Chip bedding (Northeastern Products Corp, Warrensburg, N.Y.). The cage contained 16 marbles set up in 4 rows of 4 across. Mice were given 30 minutes to explore and bury. At the end of the assay, the percentage of marbles buried was calculated.

129S6/SvEv mice [4] = test: Elevated plus maze (EPM); assay type: in vivo; settings: (R,S)-ketamine 30 mg/kg, FENM 10, 20 or 30 mg/kg, vs saline
Description: Testing was performed as previously described (47). Briefly, the maze is a plus-cross-shaped apparatus consisting of four arms, two open and two enclosed by walls, linked by a central platform at a height of 50 cm from the floor. Mice were individually placed in the center of the maze facing an open arm and were allowed to explore the maze for 5 min. The time spent in and the number of entries into the open arms was used as an anxiety index. Videos were scored using ANY-maze behavior tracking software (Stoelting, Wood Dale, Ill.).

129S6/SvEv mice [5] = test: Open field (OF); assay type: in vivo; settings: for distance travelled in the OF / time spent in the center of the OF arena: vs saline
Description: The OF assay was administered as previously described (47). Briefly, motor activity was quantified in 4 Plexiglas open field boxes 43×43 cm^2 (MED Associates, Georgia, Vt.). Two sets of 16 pulse-modulated infrared photobeams on opposite walls 2.5-cm apart recorded x-y ambulatory movements. Activity chambers were computer interfaced for data sampling at 100-ms resolution. The computer defined grid lines that dividing center and surround regions, with the center square consisting of four lines 11 cm from the wall.

129S6/SvEv mice [6] = test: Forced swim test (FST); immobility time; assay type: in vivo; settings: for p, Fisher's PLSD Saline vs. drug, FST Day 2 Immobility Time (sec): drug 1 week before stress; for Behavior: Depressive-like: dose 30 mg/kg
Description: The FST was administered as previously described (47). Briefly, mice were placed into clear plastic buckets 20 cm in diameter and 23 cm deep filled ⅔ of the way with 22° C. water. Mice were videotaped from the side for 6 min and were exposed to the swim test on 2 consecutive days Immobility time was scored by an experimenter blind to the experimental groups.

[7] = 5 min after context re-exposure 1, (R,S)-ketamine 30 mg/kg, FENM 20 mg/kg, vs saline
[8] = 5 min prior to CFC, (R,S)-ketamine 30 mg/kg, FENM 20 mg/kg, vs saline
[9] = 5 minutes after CFC, re-exposure 1 day after training, (R,S)-ketamine 30 mg/kg, FENM 20 mg/kg, vs saline
[10] = 5 minutes prior to re-exposure 1, (R,S)-ketamine 30 mg/kg, FENM 20 mg/kg, vs saline
[11] = 5 minutes after CFC, re-exposure 5 days after training
[12] = 1 week prior to CFC, (R,S)-ketamine 30 mg/kg, FENM 10, 20 or 30 mg/kg
[13] = 5 min prior to CFC, (R,S)-ketamine 30 mg/kg, FENM 20 mg/kg
[14] = Fisher's PLSD, drug 5 minutes after stress, FENM 20 mg/kg, (R,S)-ketamine 30 mg/kg
[15] = Saline vs. (R,S)-ketamine (30 mg/kg), cohort 5 min before re-exposure 1, FIG. 9L
[16] = 30 mg/kg, drug 5 minutes after stress, FIG. 2F
[17] = Saline vs. (R,S)-ketamine (30 mg/kg), FIG. 8H

CNC1(c2ccccc2Cl)CCCCC1=O (racemic) [(R,S)-ketamine, reference compound]
latency to feed in the open arena (NSF) (129S6/SvEv mice [1]; 1 week prior to CFC, (R,S)-ketamine 30 mg/kg, FENM 10, 20 or 30 mg/kg, vs saline): did not alter | latency to eat in the NSF arena (129S6/SvEv mice [1]; [7]): did not alter | latency to eat in the homecage (NSF) (129S6/SvEv mice [1]; [7]): did not alter | latency to feed in the open arena (NSF) (129S6/SvEv mice [1]; [8]): increased the latency to feed | latency to feed in the home cage (NSF) (129S6/SvEv mice [1]; [9]): did not alter | latency to feed in the open arena (NSF) (129S6/SvEv mice [1]; [9]): did not alter | latency to feed in the open arena (NSF) (129S6/SvEv mice [1]; 5 minutes after CFC, re-exposure 5 days after training, (R,S)-ketamine 30 mg/kg, FENM 10, 20 or 30 mg/kg, vs saline): did not alter | latency to eat in the NSF arena (129S6/SvEv mice [1]; [10]): did not alter | latency to eat in the homecage (NSF) (129S6/SvEv mice [1]; [10]): did not alter | Novelty Suppressed Feeding, Latency to feed in OF (sec), p (Fisher's LSD) (129S6/SvEv mice [1]; Saline vs. (R,S)-ketamine (30 mg/kg), FIG. 8P): 0.0575 | [18F]-FENM colocalization with NMDARs when (R,S)-ketamine was administered (NMDARs): colocalization with NMDARs was lost | duration of relief of depressive symptoms [2]: up to 3 weeks | time to relief of depressive symptoms after administration [2]: 2 h | p, Fisher's PLSD Saline vs. drug, MB Marbles Buried (no.) (129S6/SvEv mice [3]): 0.7292 | distance travelled in the EPM (129S6/SvEv mice [4]; 1 week prior to CFC): did not alter | time spent in the open arms and center of the EPM (129S6/SvEv mice [4]; 1 week prior to CFC): did not alter | distance travelled in the EPM (129S6/SvEv mice [4]; [11]): did not alter | time spent in the open arms and center of the EPM (129S6/SvEv mice [4]; [11]): did not alter | distance travelled in the OF (129S6/SvEv mice [5]; [12]): did not alter | time spent in the center of the OF arena (129S6/SvEv mice [5]; [12]): did not alter | distance travelled in the OF (129S6/SvEv mice [5]; [13]): did not alter | time spent in the center of the OF arena (129S6/SvEv mice [5]; [13]): did not alter | p, Distance Travelled (cm), OF, Saline vs. drug (129S6/SvEv mice [5]; Fisher's PLSD after RMANOVA, drug 5 minutes after stress, FENM 20 mg/kg, (R,S)-ketamine 30 mg/kg, FIG. 3L): 0.9319 | p, Distance Travelled Min 1 (cm), OF, Saline vs. drug (129S6/SvEv mice [5]; [14]): 0.0589 | p, Distance Travelled Min 2 (cm), OF, Saline vs. drug (129S6/SvEv mice [5]; [14]): 0.0098 | p, Distance Travelled Min 3 (cm), OF, Saline vs. drug (129S6/SvEv mice [5]; [14]): 0.1586 | p, Distance Travelled Min 4 (cm), OF, Saline vs. drug (129S6/SvEv mice [5]; [14]): 0.6504 | p, Distance Travelled Min 5 (cm), OF, Saline vs. drug (129S6/SvEv mice [5]; [14]): 0.3454 | p, Distance Travelled Min 6 (cm), OF, Saline vs. drug (129S6/SvEv mice [5]; [14]): 0.7410 | p, Distance Travelled Min 7 (cm), OF, Saline vs. drug (129S6/SvEv mice [5]; [14]): 0.1344 | p, Distance Travelled Min 8 (cm), OF, Saline vs. drug (129S6/SvEv mice [5]; [14]): 0.1467 | p, Distance Travelled Min 9 (cm), OF, Saline vs. drug (129S6/SvEv mice [5]; [14]): 0.0061 | p, Distance Travelled Min 10 (cm), OF, Saline vs. drug (129S6/SvEv mice [5]; [14]): 0.4667 | Open Field, Distance Travelled Min 1 (cm), p (Fisher's LSD) (129S6/SvEv mice [5]; [15]): 0.3306 | Open Field, Distance Travelled Min 2 (cm), p (Fisher's LSD) (129S6/SvEv mice [5]; [15]): 0.5200 | p, Fisher's PLSD Saline vs. drug, FST Day 2 Immobility Time (sec) (129S6/SvEv mice [6]; 30 mg/kg, after ANOVA, FIG. 1G): 0.0007 | p, Fisher's PLSD Saline vs. drug, FST Day 2 Immobility Time (sec) (129S6/SvEv mice [6]; 30 mg/kg, after RMANOVA, FIG. 1F): 0.0003 | p, Fisher's PLSD Saline vs. drug, FST Day 2 Immobility Time Min 1 (s) (129S6/SvEv mice [6]; [16]): 0.7994 | p, Fisher's PLSD Saline vs. drug, FST Day 2 Immobility Time Min 2 (s) (129S6/SvEv mice [6]; [16]): 0.0125 | p, Fisher's PLSD Saline vs. drug, FST Day 2 Immobility Time Min 3 (s) (129S6/SvEv mice [6]; [16]): 0.8598 | p, Fisher's PLSD Saline vs. drug, FST Day 2 Immobility Time Min 4 (s) (129S6/SvEv mice [6]; [16]): 0.2874 | p, Fisher's PLSD Saline vs. drug, FST Day 2 Immobility Time Min 5 (s) (129S6/SvEv mice [6]; [16]): 0.6526 | p, Fisher's PLSD Saline vs. drug, FST Day 2 Immobility Time Min 6 (s) (129S6/SvEv mice [6]; [16]): 0.1586 | p, Fisher's PLSD Saline vs. drug, FST Day 2 Immobility Time (s) (129S6/SvEv mice [6]; 30 mg/kg, drug 5 minutes after stress, after ANOVA, FIG. 2G): 0.0466 | immobility time, day 2 of the FST (129S6/SvEv mice [6]; [8]): significantly decreased immobility time | Behavior: Depressive-like (129S6/SvEv mice [6]; Antidepressant (5 min after stress)): ↓ | p, Immobility Time (s), FST Day 2, Saline vs. drug (129S6/SvEv mice [6]; Fisher's PLSD after ANOVA, drug 5 minutes after stress, FENM 20 mg/kg, (R,S)-ketamine 30 mg/kg, FIG. 3K): 0.6082 | p, Immobility Time (s), FST Day 2, Saline vs. drug (129S6/SvEv mice [6]; Fisher's PLSD after RMANOVA, drug 5 minutes after stress, FENM 20 mg/kg, (R,S)-ketamine 30 mg/kg, FIG. 3J): 0.8125 | Behavior: Depressive-like (129S6/SvEv mice [6]; Prophylactic (5 min before stress)): ↓ | Behavior: Depressive-like (129S6/SvEv mice [6]; Prophylactic (7 days before stress)): ↓ | Forced Swim Test Day 1, Immobility Time Min 1 (sec), p (Fisher's LSD) (129S6/SvEv mice [6]; [17]): 0.0026 | Forced Swim Test Day 1, Immobility Time Min 2 (sec), p (Fisher's LSD) (129S6/SvEv mice [6]; [17]): 0.2638 | Forced Swim Test Day 1, Immobility Time Min 3 (sec), p (Fisher's LSD) (129S6/SvEv mice [6]; [17]): 0.2171 | Forced Swim Test Day 1, Immobility Time Min 4 (sec), p (Fisher's LSD) (129S6/SvEv mice [6]; [17]): 0.6849 | Forced Swim Test Day 1, Immobility Time Min 5 (sec), p (Fisher's LSD) (129S6/SvEv mice [6]; [17]): 0.2114 | Forced Swim Test Day 1, Immobility Time Min 6 (sec), p (Fisher's LSD) (129S6/SvEv mice [6]; [17]): 0.0499 | Forced Swim Test Day 2, Immobility Time (sec), p (Fisher's LSD) (129S6/SvEv mice [6]; Saline vs. (R,S)-ketamine (30 mg/kg), after ANOVA, FIG. 8K): 0.0046 | Forced Swim Test Day 2, Immobility Time (sec), p (Fisher's LSD) (129S6/SvEv mice [6]; Saline vs. (R,S)-ketamine (30 mg/kg), after RMANOVA, FIG. 8J): 0.0036
